Test results reported in a melting point compilation (Tetko et al.).

Compound | melting point [°C]
CC(C)c1n[nH]c(C(=O)O)c1Br | 195 to 197
O=C(CC1SC(N2CCCC2)=NC1=O)Nc1ccc(C(=O)O)cc1 (stereo not drawn) | 180 to 183
Cc1ccc2[nH]c(-c3ccc(Br)cc3)c(CCC(=O)O)c2c1 | 101 to 103
Cc1cc(Br)cc2c(=O)cc[nH]c12 | 249 to 251
COc1cc(OC)c(NC(=O)OCC(F)(F)F)cc1Cl | 87 to 89
O=C1Nc2ccc(S(=O)(=O)Cl)cc2C1=O | 184 to 186
O=Cc1cn(-c2ccccc2)nc1-c1cc2ccccc2oc1=O | 223 to 225
O=Cc1cnc(-c2ccsc2)s1 | 107 to 109
O=C(O)CCC(=O)NCC(=O)c1ccccc1 | 143 to 145
c1n[nH]c2cc3c(cc12)OCO3 | 199 to 201
O=C(O)c1ccc(N2C(=O)CCC2=O)cc1 | 210 to 212
CCn1nc(C(C)C)cc1C(=O)O | 115 to 117
Cc1nn(C)cc1C=O | 46 to 48
CC(=O)N1CCN(c2ccc(C(=O)O)cc2[N+](=O)[O-])CC1 | 262 to 264
CCCn1c(C)nnc1CO | 59 to 61
COc1ccc(NS(=O)(=O)c2cc(N)ccc2N2CCCCC2)cc1 | 145 to 154
Cc1ccc(O)c(S(=O)(=O)N2CCNCC2)c1 | 187 to 189
Cc1[nH]c2ccc(F)cc2c1C=O | 215 to 217
N#Cc1ccc(OCCN)nc1 | 101 to 103
O=C(Nc1cnccn1)C1CCNCC1 | 131 to 133
CC(C)CCn1cc(C(=O)O)nn1 | 187 to 189

Compound | melting point [°C]
Cc1ccc(C)c(NC(=S)NN)c1 | 162 to 164
OC(c1ccccc1)(c1ccc(F)cc1)c1ccc(F)cc1 | 86 to 88
O=C(O)c1cccc(C(O)C(=O)O)c1 (stereo not drawn) | 189 to 191
Oc1cccc(Oc2ccncc2)c1 | 119 to 121
O=C(O)c1cnn(-c2ccccc2)c1C1CC1 | 173 to 175
CCN(CC)c1ccc(-c2nnc(S)n2-c2ccccc2C)cc1 | 232 to 234
Cn1cc(CCC(=O)O)cn1 | 137 to 139
Cc1sc2ncnc(N3CCC(C(=O)O)CC3)c2c1C | 244 to 246
Nc1ccc(CCN2CCOCC2)cc1 | 87 to 89
CS(=O)(=O)NCC(=O)c1ccccc1 | 113 to 115
O=C(O)c1ccc(F)c(S(=O)(=O)NC2CC2)c1 | 226 to 228
Nc1nccnc1Br | 129 to 131
CN(CC(=O)O)S(C)(=O)=O | 54 to 56
CN1C(=O)C(C(N)=NO)=C(N)C12CCCC2 | 210 to 212
O=S1(=O)CCCN1c1ccc(Br)cc1F | 89 to 91
COC(=O)c1cc(NC(=O)C(C)Cl)cc(C(=O)OC)c1 (stereo not drawn) | 126 to 128
COc1ccc(C(=O)O)cc1S(=O)(=O)N1CCCc2ccccc21 | 211 to 213
CC(C)(C(=O)O)C(O)c1ccc(OCc2ccccc2)cc1 (stereo not drawn) | 167 to 169
O=C1Cc2ncccc2N1 | 189 to 191
O=C(c1ccc(Cl)cc1)c1ccccn1 | 63 to 65
COCCCS(=O)(=O)NCC(=O)O | 59 to 61

Compound | melting point [°C]
CC(=O)c1ccc(S(=O)(=O)NC(CC(N)=O)C(=O)O)cc1 (stereo not drawn) | 180 to 182
CC(C)NO | 73 to 75
N#CC1=C(N)CCCC1 | 92 to 94
COc1ccc(CBr)cc1C#N | 119 to 121
c1nnc(C2CC2)n1C1CC1 | 74 to 76
O=C(NCc1ccccc1)c1cc2ccccc2cc1O | 180 to 182
CC1C=CC2C(=O)N(C(C)C)C(=O)C2C1C(=O)O (stereo not drawn) | 149 to 151
CN(C)S(=O)(=O)c1cc(C(=O)O)ccc1F | 199 to 201
NC(=O)NC(CC(=O)O)c1cccc(Br)c1 (stereo not drawn) | 159 to 161
NC(=O)C(Cl)c1ccc(Br)cc1 (stereo not drawn) | 164 to 166
Cc1ccc(/C=C/S(=O)(=O)Cl)cc1 | 111 to 113
Cc1cc(Cl)c([N+](=O)[O-])cc1S(=O)(=O)Cl | 116 to 118
Cc1ccc([N+](=O)[O-])cc1S(=O)(=O)Nc1ccccc1C(=O)O | 290 to 292
NNc1ccc([N+](=O)[O-])cc1S(=O)(=O)Nc1ccccc1Cl | 220 to 229
CC(C)NS(=O)(=O)c1ccc(N)cc1 | 112 to 114
Cc1ccc(Oc2ccc(O)cc2)cc1 | 71 to 73
N#Cc1c(S)nc(CCc2ccccc2)c2c1CCCC2 | 224 to 226
Cc1cc(S(=O)(=O)Cl)c(Cl)cc1F | 44 to 46
O=C(O)/C(=C\c1ccccc1)c1ccc(Cl)cc1 | 179 to 183
O=C1CCc2ccccc2CN1 | 124 to 126
Cc1nc(Cl)c2c(n1)CCCC2 | 30 to 32

Compound | melting point [°C]
CN(C)Cc1ccc(C(=N)N)cc1 | 124 to 126
O=C(O)c1ccc(CNC2=NS(=O)(=O)c3ccccc32)cc1 | 303 to 305
O=[N+]([O-])c1ccc2c(c1)NCCS2 | 142 to 144
CC1(COS(C)(=O)=O)COC1 | 32 to 34
Oc1cnc2cc(Cl)c(Cl)cc2n1 | 299 to 301
Sc1ncc(-c2ccc(Cl)cc2)n1-c1ccccc1 | 283 to 285
N#Cc1cc(C#N)c(S)nc1N | 280 to 282
Sc1nnc(C2CC2)n1C1CC1 | 138 to 140
NC(=O)C1NCCc2ccccc21 (stereo not drawn) | 180 to 182
O=C(O)CCC(=O)N1CC(=O)Nc2ccccc21 | 181 to 183
N#Cc1cccnc1N1CCCC1 | 36 to 38
O=C(O)c1ccc(Cl)c(S(=O)(=O)NC2CC2)c1 | 221 to 224
O=C(O)c1cccc(S(=O)(=O)N2CCc3ccccc3C2)c1 | 55 to 58
OCc1cc(F)cc(CO)c1O | 119 to 121
O=C(CCl)N1c2ccccc2SCC1c1ccccc1 (stereo not drawn) | 162 to 164
O=C(O)Cn1nc(-c2ccccc2)ccc1=O | 237 to 239
COc1cc(Br)c(S(=O)(=O)Cl)cc1C(=O)O | 196 to 198
CC(C)n1cnc(S(=O)(=O)Cl)c1 | 62 to 64
Cc1ccc(C(N)Cn2ccnc2)c(C)c1 (stereo not drawn) | 79 to 81
CCCCCS(N)(=O)=O | 62 to 64

Further lines, results first:

melting point [°C] | Compound
141 to 143 | CCN(CC)C(C(N)=O)c1ccccc1 (stereo not drawn)
147 to 149 | COC(=O)c1ccc(NS(C)(=O)=O)cc1
84 to 86 | COc1ccccc1NCCC(=O)O
260 to 262 | CS(=O)(=O)c1ccc(-c2csc(N)n2)cc1
132 to 134 | COC(=O)c1ccc(NC(C)=O)c(C)c1
159 to 161 | O=c1[nH]ccc2sccc12
66 to 68 | CCc1ccc(CC)c(-c2csc(N)n2)c1
174 to 176 | N#Cc1ccccc1Oc1ccc(C(=O)O)cc1Cl
151 to 153 | CN(C)C(=O)c1ccc(N)cc1
157 to 159 | Cc1ccccc1-n1c(S)nc2scc(-c3ccccc3)c2c1=O
91 to 95 | CCNc1ccc(C(=O)OCC)cc1[N+](=O)[O-]
219 to 221 | Nc1nnc(Cc2ccc3ccccc3c2)o1
164 to 166 | CCOC(=O)c1nc(-c2cccs2)oc1N
143 to 145 | COc1ccc(Br)cc1C(N)=S
203 to 205 | COc1ccccc1-c1nn(C)cc1C(=O)O
106 to 108 | Cc1c(N)cccc1C(=O)N1CCOCC1
171 to 174 | COC(=O)c1sc(N)nc1C
184 to 188 | O=C(O)c1cccnc1SC(F)F
100 to 104 | COc1cccc(CNC(=O)CCl)c1
108 to 110 | O=C(O)c1ccccc1OCc1cccc(Br)c1

melting point [°C] | Compound
262 to 264 | Cc1cc(C(=O)O)c2c(C)nn(C)c2n1
57 to 59 | Cc1cccc(OCCNC(=O)C(C)Cl)c1 (stereo not drawn)
198 to 200 | O=C(CCCc1cccs1)Nc1cccc(C(=O)O)c1
126 to 128 | CCOC(=O)c1cc(N2CCNC(=O)C2)ccc1N
168 to 170 | NS(=O)(=O)c1ccc2c(c1)oc(=O)n2CC(=O)O
139 to 141 | CCCCc1nnc(N)o1
167 to 169 | NC1CCc2c(O)cccc21 (stereo not drawn)
33 to 35 | COc1ccc(Cl)cc1C(C)=O
227 to 229 | O=C(O)c1cc2ccc(F)cc2[nH]1
162 to 164 | Cc1cc(N)ccc1C(=O)N(C)C
84 to 86 | CCC(=O)Nc1cccc(C#N)c1
124 to 125 | CC(C)(C)NC(=O)c1ccccc1N
86 to 88 | CC(C)Oc1cc(Br)ccc1C(=O)O
57 to 59 | CCOC(=O)c1cc(CC)sc1NC(=O)C(C)Cl (stereo not drawn)
108 to 110 | CC(C)CCOc1ccc(C(=O)NN)cc1
88 to 90 | Nc1ccccc1N1CCOC1=O
176 to 178 | Cn1ncnc1COc1ccc(S(N)(=O)=O)cc1
65 to 67 | Cc1oc(-c2cccs2)nc1CCl
87 to 89 | Cc1ccc(-c2ccc(C=O)s2)cc1
69 to 71 | COc1ccc(Cl)cc1CS(=O)(=O)Cl

melting point [°C] | Compound
158 to 160 | Cc1cccc(C=C(C(=O)O)c2cccs2)c1
248 to 250 | Nc1nncc(-c2ccc(F)cc2)n1
188 to 190 | CCNc1ccc(S(=O)(=O)N2CCOCC2)cc1N
164 to 166 | O=C(O)c1cc(OCC2CC2)c2ccccc2n1
101 to 103 | Nc1cc(F)c(-n2cccn2)cc1N
91 to 93 | Cc1nn(C)c(Oc2cccnc2)c1C=O
159 to 161 | COc1ccc(CC(=O)NO)cc1
148 to 150 | O=C(CCl)NC(=O)NCc1cccs1
214 to 216 | Cc1c(C=O)c2ccccn2c1C=O
135 to 137 | COc1cccc(Nc2ccccc2C(=O)O)c1
92 to 94 | CCOC(=O)c1ncsc1NC
188 to 190 | CCC1SC(N)=NC1=O (stereo not drawn)
39 to 41 | Cc1nn(Cc2ccccc2)c(C)c1CN
121 to 123 | Nc1ccc(NC(=O)c2ccoc2)cc1C(F)(F)F
224 to 226 | Cc1cc2cc[nH]c(=O)c2n1C
97 to 101 | NNC(=O)Cc1cn2ccsc2n1
299 to 301 | Cc1cc(C(=O)O)c2c(C)n[nH]c2n1
192 to 193 | CC(=O)c1cnc2nncn2c1C
181 to 183 | Cc1nc(-c2cccc(Br)c2)ccc1C(=O)O
193 to 195 | CCc1ncsc1C(=O)O
